Experimental data taken from ChEMBL document CHEMBL1201862, “PubChem BioAssay data set” (2004).
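Test compounds were applied to cells in 96-well plates for 48 hours at 5 doses. GI50 = concentration required for 50% inhibition of growth.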 The source made the active and inactive calls. Rule as the data show it: active = GI50 up to about 1.1 µM and inactive = higher.

Tests used:
Test in all cases: DTP human tumour cell line panel, 48 h
A498 = test system: A498
A549 = test system: A549
BT-549 = test system: BT-549
EKVX = test system: EKVX
HCT-116 = test system: HCT-116
HT-29 = test system: HT-29
Hs-578T = test system: Hs-578T
MCF7 = test system: MCF7
MDA-MB-231 = test system: MDA-MB-231
MDA-N = test system: MDA-N
MOLT-4 = test system: MOLT-4
NCI-H522 = test system: NCI-H522
RXF 393 = test system: RXF 393
SF-539 = test system: SF-539
SNB-19 = test system: SNB-19
UACC-257 = test system: UACC-257
UACC-62 = test system: UACC-62
786-0 = test system: 786-0
ACHN = test system: ACHN
CAKI-1 = test system: CAKI-1
CCRF-CEM = test system: CCRF-CEM
COLO 205 = test system: COLO 205
HCT-15 = test system: HCT-15
HL-60 = test system: HL-60
HOP-62 = test system: HOP-62
IGROV-1 = test system: IGROV-1
KM12 = test system: KM12
LOX IMVI = test system: LOX IMVI
M14 = test system: M14
MDA-MB-435 = test system: MDA-MB-435
Malme-3M = test system: Malme-3M
NCI-H226 = test system: NCI-H226
NCI-H23 = test system: NCI-H23
NCI-H460 = test system: NCI-H460
NCI/ADR-RES = test system: NCI/ADR-RES
OVCAR-3 = test system: OVCAR-3
OVCAR-5 = test system: OVCAR-5
OVCAR-8 = test system: OVCAR-8
PC-3 = test system: PC-3
SF-268 = test system: SF-268
SF-295 = test system: SF-295
SK-MEL-28 = test system: SK-MEL-28
SK-MEL-2 = test system: SK-MEL-2
SK-OV-3 = test system: SK-OV-3
SNB-75 = test system: SNB-75
SR = test system: SR
SW-620 = test system: SW-620
TK-10 = test system: TK-10
U-251 = test system: U-251
DU-145 = test system: DU-145
HOP-92 = test system: HOP-92
K562 = test system: K562
RPMI-8226 = test system: RPMI-8226
SK-MEL-5 = test system: SK-MEL-5
SN12C = test system: SN12C
T47D = test system: T47D
UO-31 = test system: UO-31

For `c1ccc(Nn2c(CCCCCCCCc3nnc(COc4ccccc4)n3Nc3ccccc3)nnc2COc2ccccc2)cc1`, the GI50 (A498) was 87.9 µM (inactive), the GI50 (A549) was 11.8 µM (inactive) and the GI50 (BT-549) was 58.5 µM (inactive). The GI50 (EKVX) was 32.7 µM (inactive), the GI50 (HCT-116) was 16.2 µM (inactive) and the GI50 (HT-29) was 24.3 µM (inactive). The GI50 (Hs-578T) was 72.8 µM (inactive), the GI50 (MCF7) was 11.5 µM (inactive) and the GI50 (MDA-MB-231) was 20 µM (inactive). The GI50 (MDA-N) was 11 µM (inactive), the GI50 (MOLT-4) was 18 µM (inactive) and the GI50 (NCI-H522) was 16.1 µM (inactive). The GI50 (RXF 393) was 48.5 µM (inactive), the GI50 (SF-539) was 12.8 µM (inactive) and the GI50 (SNB-19) was 36.9 µM (inactive). The GI50 (UACC-257) was 13.9 µM (inactive) and the GI50 (UACC-62) was 1.74 µM (inactive).
In the case of `CC(=O)c1ccc2c(c1)oc(=O)n2CCN(C)C`, the GI50 (786-0) is reported as > 100 µM (inactive), the GI50 (A498) is reported as > 100 µM (inactive) and the GI50 (ACHN) is reported as > 100 µM (inactive). The GI50 (BT-549) was > 100 µM (inactive), the GI50 (CAKI-1) was > 100 µM (inactive) and the GI50 (CCRF-CEM) was > 100 µM (inactive). For the same molecule, the GI50 (COLO 205) was > 100 µM (inactive), the GI50 (EKVX) was > 100 µM (inactive) and the GI50 (HCT-116) was > 100 µM (inactive). The GI50 (HCT-15) was > 100 µM, the GI50 (HL-60) was > 100 µM (inactive) and the GI50 (HOP-62) was > 100 µM (inactive). The GI50 (HT-29) was 93.8 µM (inactive), the GI50 (Hs-578T) was 51.6 µM (inactive) and the GI50 (IGROV-1) was 32.1 µM (inactive). For the same molecule, the GI50 (KM12) was > 100 µM (inactive), the GI50 (LOX IMVI) was > 100 µM (inactive) and the GI50 (M14) was > 100 µM (inactive). For the same molecule, the GI50 (MCF7) was > 100 µM (inactive), the GI50 (MDA-MB-231) was > 100 µM (inactive) and the GI50 (MDA-MB-435) was > 100 µM (inactive). The GI50 (MOLT-4) was > 100 µM (inactive), the GI50 (Malme-3M) was 2.02 µM (inactive) and the GI50 (NCI-H226) was > 100 µM (inactive). For the same molecule, the GI50 (NCI-H23) was > 100 µM (inactive), the GI50 (NCI-H460) was > 100 µM (inactive) and the GI50 (NCI/ADR-RES) was > 100 µM (inactive). For the same molecule, the GI50 (OVCAR-3) was > 100 µM (inactive), the GI50 (OVCAR-5) was > 100 µM (inactive) and the GI50 (OVCAR-8) was > 100 µM (inactive). For the same molecule, the GI50 (PC-3) was > 100 µM (inactive), the GI50 (RXF 393) was > 100 µM (inactive) and the GI50 (SF-268) was > 100 µM (inactive). The GI50 (SF-295) was > 100 µM (inactive), the GI50 (SF-539) was > 100 µM (inactive) and the GI50 (SK-MEL-28) was > 100 µM (inactive). The GI50 (SK-MEL-2) was > 100 µM (inactive), the GI50 (SK-OV-3) was > 100 µM (inactive) and the GI50 (SNB-75) was 21.7 µM (inactive). For the same molecule, the GI50 (SR) was > 100 µM (inactive), the GI50 (SW-620) was > 100 µM (inactive) and the GI50 (TK-10) was > 100 µM (inactive). For the same molecule, the GI50 (U-251) was > 100 µM (inactive), the GI50 (UACC-257) was > 100 µM (inactive) and the GI50 (UACC-62) was > 100 µM (inactive).
For `C=C1C(=O)O[C@H]2C(=O)[C@H](C)CCC/C(C)=C/CC[C@@]3(C)O[C@@H]3C[C@@H]12`, the GI50 (786-0) was 1.62 µM (inactive), the GI50 (A498) was 18.4 µM (inactive) and the GI50 (A549) was 5.82 µM (inactive). For the same molecule, the GI50 (ACHN) was 1.34 µM (inactive), the GI50 (CAKI-1) was 1.67 µM (inactive) and the GI50 (CCRF-CEM) was 1.18 µM (inactive). The GI50 (COLO 205) was 1.58 µM (inactive), the GI50 (DU-145) was 2.56 µM (inactive) and the GI50 (HCT-116) was 1.05 µM (active). For the same molecule, the GI50 (HCT-15) was 1.56 µM, the GI50 (HL-60) was 2.72 µM (inactive) and the GI50 (HOP-62) was 11.6 µM (inactive). For the same molecule, the GI50 (HOP-92) was 1 µM (active), the GI50 (HT-29) was 1.9 µM (inactive) and the GI50 (Hs-578T) was 6.34 µM (inactive). For the same molecule, the GI50 (IGROV-1) was 2.76 µM (inactive), the GI50 (K562) was 2.07 µM (inactive) and the GI50 (KM12) was 4.3 µM (inactive). For the same molecule, the GI50 (LOX IMVI) was 1.49 µM (inactive), the GI50 (M14) was 1.67 µM (inactive) and the GI50 (MCF7) was 3.02 µM (inactive). The GI50 (MDA-MB-231) was 10.7 µM (inactive), the GI50 (MDA-MB-435) was 1.98 µM (inactive) and the GI50 (MDA-N) was 2.74 µM (inactive). The GI50 (MOLT-4) was 1.61 µM (inactive), the GI50 (NCI-H226) was 17.7 µM (inactive) and the GI50 (NCI-H23) was 14 µM (inactive). For the same molecule, the GI50 (NCI-H460) was 15.4 µM (inactive), the GI50 (NCI-H522) was 1.67 µM (inactive) and the GI50 (NCI/ADR-RES) was 14 µM (inactive). For the same molecule, the GI50 (OVCAR-3) was 1.74 µM (inactive), the GI50 (OVCAR-5) was 5.6 µM (inactive) and the GI50 (OVCAR-8) was 1.69 µM (inactive). The GI50 (PC-3) was 6.76 µM (inactive), the GI50 (RPMI-8226) was 2.25 µM (inactive) and the GI50 (SF-268) was 4.54 µM (inactive). The GI50 (SF-295) was 14 µM (inactive), the GI50 (SF-539) was 2.39 µM (inactive) and the GI50 (SK-MEL-2) was 5.26 µM (inactive). For the same molecule, the GI50 (SK-MEL-5) was 7.59 µM (inactive), the GI50 (SK-OV-3) was 16.4 µM (inactive) and the GI50 (SN12C) was 5.53 µM (inactive). The GI50 (SNB-19) was 11.4 µM (inactive), the GI50 (SR) was 2.45 µM (inactive) and the GI50 (SW-620) was 1.56 µM (inactive). The GI50 (T47D) was 2.01 µM (inactive), the GI50 (TK-10) was 0.135 µM (active) and the GI50 (U-251) was 2.67 µM (inactive). For the same molecule, the GI50 (UACC-257) was 2.99 µM (inactive), the GI50 (UACC-62) was 5.06 µM (inactive) and the GI50 (UO-31) was 1.62 µM (inactive).
